Reference: ChEMBL document CHEMBL1201862, “PubChem BioAssay data set” (2004)
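Briefly, cells in 96-well plates were exposed to five compound concentrations for 48 h, and endpoints were estimated by linear interpolation. GI50: concentration for 50% inhibition of growth.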 The source made the active and inactive calls. Cut-off read from the data, not from the text of the source: active = GI50 up to about 1.1 µM and inactive = higher.

Key:
Test in all cases: growth of human tumour cells (NCI), 48 h
NCI-H23 = tested on: NCI-H23
HCT-116 = tested on: HCT-116
SK-MEL-28 = tested on: SK-MEL-28
SW-620 = tested on: SW-620
SF-295 = tested on: SF-295
EKVX = tested on: EKVX
HOP-62 = tested on: HOP-62
CAKI-1 = tested on: CAKI-1
A549 = tested on: A549
K562 = tested on: K562
MDA-MB-435 = tested on: MDA-MB-435
ACHN = tested on: ACHN
UACC-62 = tested on: UACC-62
CCRF-CEM = tested on: CCRF-CEM
HCC 2998 = tested on: HCC 2998
HL-60 = tested on: HL-60
Malme-3M = tested on: Malme-3M
SK-MEL-5 = tested on: SK-MEL-5
A498 = tested on: A498
MDA-MB-231 = tested on: MDA-MB-231

Measured: GI50

COC(=O)C1(Cc2ccc3c(c2)CCC3)Cc2cc3c(cc2C1=O)CCC3 (stereo not given)
inactive: NCI-H23 22 µM | HCT-116 11.4 µM | SK-MEL-28 37.2 µM | SW-620 16.9 µM | SF-295 35.6 µM | EKVX 21.3 µM | HOP-62 > 46.5 µM | CAKI-1 6.73 µM | A549 18.2 µM | K562 8.93 µM | MDA-MB-435 13.3 µM | ACHN 37.2 µM | UACC-62 37 µM | CCRF-CEM 17.7 µM | HCC 2998 22.1 µM | HL-60 6.67 µM | Malme-3M 41.5 µM | SK-MEL-5 14.3 µM | A498 10.7 µM | MDA-MB-231 24.6 µM

CC1=NN2C(=N)/C(=C/c3ccc(F)cc3)C(=O)N=C2S1
inactive: NCI-H23 > 100 µM | HCT-116 > 100 µM | SK-MEL-28 > 100 µM | SW-620 > 100 µM | SF-295 > 100 µM | EKVX > 100 µM | HOP-62 > 100 µM | CAKI-1 > 100 µM | A549 > 100 µM | K562 > 100 µM | MDA-MB-435 > 100 µM | ACHN > 100 µM | UACC-62 > 100 µM | CCRF-CEM > 100 µM | HCC 2998 44.4 µM | HL-60 > 100 µM | Malme-3M > 100 µM | SK-MEL-5 > 100 µM | A498 > 100 µM | MDA-MB-231 > 100 µM

O=[N+]([O-])c1cccnc1NCC1(CO)CC(Cc2ccccc2)C1 (stereo not given)
inactive: NCI-H23 > 100 µM | HCT-116 > 100 µM | SK-MEL-28 > 100 µM | SW-620 > 100 µM | SF-295 > 100 µM | EKVX 77.6 µM | HOP-62 > 100 µM | CAKI-1 > 100 µM | A549 > 100 µM | K562 > 100 µM | MDA-MB-435 > 100 µM | ACHN > 100 µM | UACC-62 > 100 µM | CCRF-CEM > 100 µM | HCC 2998 > 100 µM | HL-60 > 100 µM | Malme-3M > 100 µM | SK-MEL-5 > 100 µM | A498 > 100 µM | MDA-MB-231 > 100 µM

CC(C)OP(=O)(CN(C)/C(F)=N\C(F)(F)F)OC(C)C
inactive: NCI-H23 > 100 µM | HCT-116 > 100 µM | SK-MEL-28 > 100 µM | SW-620 > 100 µM | SF-295 > 100 µM | EKVX > 100 µM | HOP-62 > 100 µM | CAKI-1 > 100 µM | A549 > 100 µM | K562 > 100 µM | MDA-MB-435 > 100 µM | ACHN > 100 µM | UACC-62 > 100 µM | CCRF-CEM > 100 µM | HCC 2998 > 100 µM | HL-60 63.8 µM | Malme-3M > 100 µM | SK-MEL-5 > 100 µM | A498 > 100 µM | MDA-MB-231 > 100 µM

O=c1[nH]nc(-c2ccccc2)n1O
inactive: NCI-H23 > 100 µM | HCT-116 > 100 µM | SK-MEL-28 > 100 µM | SW-620 > 100 µM | SF-295 > 100 µM | EKVX > 100 µM | HOP-62 > 100 µM | CAKI-1 > 100 µM | A549 > 100 µM | K562 > 100 µM | MDA-MB-435 > 100 µM | ACHN > 100 µM | UACC-62 > 100 µM | CCRF-CEM > 100 µM | HCC 2998 > 100 µM | HL-60 > 100 µM | Malme-3M > 100 µM | SK-MEL-5 > 100 µM | A498 > 100 µM | MDA-MB-231 > 100 µM

CC(C)Cc1ccc(C(C)/C=C2\CCC(CN(C)C)C2=O)cc1 (stereo not given)
inactive: NCI-H23 12.6 µM | HCT-116 7.05 µM | SK-MEL-28 15.8 µM | SW-620 6.82 µM | SF-295 14.7 µM | EKVX 19.9 µM | HOP-62 9.23 µM | CAKI-1 17.5 µM | A549 27.7 µM | K562 2.86 µM | MDA-MB-435 7.16 µM | ACHN 19.4 µM | UACC-62 17.5 µM | CCRF-CEM 3.92 µM | HCC 2998 16.8 µM | HL-60 5.61 µM | Malme-3M 17 µM | SK-MEL-5 11.7 µM | A498 19.5 µM | MDA-MB-231 2.28 µM

NC(Cc1ccnnc1)C(=O)O (stereo not given)
inactive: NCI-H23 > 100 µM | HCT-116 > 100 µM | SK-MEL-28 > 100 µM | SW-620 > 100 µM | SF-295 > 100 µM | EKVX > 100 µM | HOP-62 > 100 µM | CAKI-1 > 100 µM | A549 > 100 µM | K562 > 100 µM | MDA-MB-435 > 100 µM | ACHN > 100 µM | UACC-62 > 100 µM | CCRF-CEM > 100 µM | HCC 2998 > 100 µM | HL-60 > 100 µM | Malme-3M > 100 µM | SK-MEL-5 > 100 µM | A498 > 100 µM | MDA-MB-231 > 100 µM

CCOc1cc2c(cc1O)CC[C@@H]1[C@@H]2CC[C@]2(C)C(N)CC[C@@H]12 (stereo not given in full)
inactive: NCI-H23 3.48 µM | HCT-116 3.05 µM | SK-MEL-28 9.62 µM | SW-620 3.04 µM | SF-295 3.24 µM | EKVX 4.27 µM | HOP-62 5.94 µM | CAKI-1 4.22 µM | A549 3.3 µM | K562 3.89 µM | MDA-MB-435 1.63 µM | ACHN 4.58 µM | UACC-62 3.91 µM | CCRF-CEM 1.73 µM | HCC 2998 2.22 µM | HL-60 1.42 µM | Malme-3M 11.8 µM | SK-MEL-5 3.56 µM | A498 5.52 µM | MDA-MB-231 2.12 µM

C[C@@H](C[C@H]1OC(C)(C)O[C@@H]1C(C)(C)O)[C@H]1CC=C2[C@]3(C)[C@H](O)C[C@H]4C(C)(C)[C@H](O)CC[C@]4(C)[C@H]3CC[C@]21C
inactive: NCI-H23 9.86 µM | HCT-116 5.86 µM | SK-MEL-28 9.95 µM | SW-620 10.7 µM | SF-295 9.14 µM | EKVX 9.98 µM | HOP-62 12.8 µM | CAKI-1 10.8 µM | A549 5.86 µM | K562 3.99 µM | MDA-MB-435 8.28 µM | ACHN 8.15 µM | UACC-62 11.5 µM | CCRF-CEM 5.64 µM | HCC 2998 7.08 µM | HL-60 2.62 µM | Malme-3M 14 µM | SK-MEL-5 7.36 µM | A498 10.7 µM | MDA-MB-231 7.93 µM

Nc1nc(Cl)c(C=O)c(NCC2(CO)CC(CCc3ccccc3)C2)n1 (stereo not given)
inactive: NCI-H23 2.29 µM | HCT-116 13.7 µM | SK-MEL-28 4 µM | SW-620 4.1 µM | SF-295 13.3 µM | EKVX 3.94 µM | HOP-62 14.5 µM | CAKI-1 1.55 µM | A549 12.1 µM | K562 1.88 µM | MDA-MB-435 5.73 µM | ACHN 12.7 µM | UACC-62 5.38 µM | CCRF-CEM 7.85 µM | HCC 2998 1.88 µM | HL-60 1.67 µM | Malme-3M 14.1 µM | SK-MEL-5 8.05 µM | A498 11.7 µM | MDA-MB-231 7.46 µM

COc1ccc(OC)c2c(Nc3ccc(S(=O)(=O)O)c4cc(S(=O)(=O)O)cc(S(=O)(=O)O)c34)cc(C)nc12
inactive: NCI-H23 > 100 µM | HCT-116 > 100 µM | SK-MEL-28 > 100 µM | SW-620 > 100 µM | SF-295 > 100 µM | EKVX > 100 µM | HOP-62 > 100 µM | CAKI-1 > 100 µM | A549 > 100 µM | K562 > 100 µM | MDA-MB-435 > 100 µM | ACHN > 100 µM | UACC-62 > 100 µM | CCRF-CEM > 100 µM | HCC 2998 10.8 µM | HL-60 > 100 µM | Malme-3M > 100 µM | SK-MEL-5 > 100 µM | A498 > 100 µM | MDA-MB-231 > 100 µM

C=C(C)C(=O)OC1C[C@H](COC(C)=O)C2CC=C(CO)C2C2OC(=O)C(=C)[C@H]12 (stereo not given in full)
inactive: NCI-H23 42.8 µM | HCT-116 18.3 µM | SK-MEL-28 32.3 µM | SW-620 16.2 µM | SF-295 > 100 µM | EKVX > 100 µM | HOP-62 > 100 µM | CAKI-1 41.6 µM | A549 > 100 µM | K562 14.9 µM | MDA-MB-435 35.3 µM | ACHN 44.3 µM | UACC-62 39.6 µM | CCRF-CEM 10.4 µM | HCC 2998 47.2 µM | HL-60 23.1 µM | Malme-3M 16.8 µM | SK-MEL-5 > 100 µM | A498 > 100 µM | MDA-MB-231 51.8 µM
